# Assay results reported in US8541460B2, “PDK-1/Akt signaling inhibitors” (The Ohio State University, priority 2003, dated 2013).
# Like-named read-outs stand apart in the source and are kept apart here.
# Assays:
# phospho-473Ser Akt = assay: Western blot of Akt and phospho-Akt in PC-3 cells; assay type: cell-based, human; conditions: 1 μM
# Method: Immunoblotting. The general procedure for the Western blot analysis of Akt and phospho-Akt is described as follows. Cells were washed in PBS, resuspended in SDS sample buffer sonicated by an ultrasonic sonicator for 5 sec, and boiled for 5 min. After brief centrifugation, equivalent protein concentrations from the soluble fractions were resolved in 10% SDS-polyacrylamide gels on a Minigel apparatus, and transferred to a nitrocellulose membrane using a semi-dry transfer cell. The transblotted membrane was washed three times with TBS containing 0.05% Tween 20 (TBST). After blocking with TBST containing 5% nonfat milk for 60 min., the membrane was incubated with the primary antibody at 1:1,000 dilution in TBST-5% low fat milk at 4° C. for 12 h, and was then washed three times with TBST. The membrane was probed with goat anti-rabbit IgG-HRP conjugates (1:1,000) for 1 h at room temperature, and was washed with TBST three times. The immunoblots were visualized by enhanced chemiluminescence.
# NCI-H322M = assay: NCI DTP cell line screen (SRB), Non-Small Cell Lung Cancer; assay type: cell-based
# Method: (§1) Screening of compounds 70 and 71 against several cancer cell lines The human tumor cell lines of the cancer screening panel are grown in RPMI 1640 medium containing 5% fetal bovine serum and 2 mM L-glutamine. For a typical screening experiment, cells are inoculated into 96 well microtiter plates in 100 μL at plating densities ranging from 5,000 to 40,000 cells/well depending on the doubling time of individual cell lines. After cell inoculation, the microtiter plates are incubated at 37° C., 5% CO2, 95% air and 100% relative humidity for 24 h prior to addition of experimental drugs.
# (§2) After 24 h, two plates of each cell line are fixed in situ with TCA, to represent a measurement of the cell population for each cell line at the time of drug addition (Tz). Experimental drugs are solubilized in dimethyl sulfoxide at 400-fold the desired final maximum test concentration and stored frozen prior to use. At the time of drug addition, an aliquot of frozen concentrate is thawed and diluted to twice the desired final maximum test concentration with complete medium containing 50 μg/ml gentamicin. Additional four, 10-fold or ½ log serial dilutions are made to provide a total of five drug concentrations plus control. Aliquots of 100 μl of these different drug dilutions are added to the appropriate microtiter wells already containing 100 μl of medium, resulting in the required final drug concentrations.
# (§3) Following drug addition, the plates are incubated for an additional 48 h at 37° C., 5% CO2, 95% air, and 100% relative humidity. For adherent cells, the assay is terminated by the addition of cold TCA. Cells are fixed in situ by the gentle addition of 50 μl of cold 50% (w/v) TCA (final concentration, 10% TCA) and incubated for 60 minutes at 4° C. The supernatant is discarded, and the plates are washed five times with tap water and air dried. Sulforhodamine B (SRB) solution (100 μl) at 0.4% (w/v) in 1% acetic acid is added to each well, and plates are incubated for 10 minutes at room temperature. After staining, unbound dye is removed by washing five times with 1% acetic acid and the plates are air dried. Bound stain is subsequently solubilized with 10 mM trizma base, and the absorbance is read on an automated plate reader at a wavelength of 515 nm. For suspension cells, the methodology is the same except that the assay is terminated by fixing settled cells at the bottom of the wells by gently adding 50 μl of 80% TCA (final concentration, 16% TCA). Using the seven absorbance measurements [time zero, (Tz), control growth, (C), and test growth in the presence of drug at the five concentration levels (Ti)], the percentage growth is calculated at each of the drug concentrations levels. Percentage growth inhibition is calculated as: [(Ti−Tz)/(C−Tz)]×100 for concentrations for which Ti>/=Tz [(Ti−Tz)/Tz]×100 for concentrations for which Ti<Tz
# (§4) Three dose response parameters are calculated for each experimental agent. […] The drug concentration resulting in total growth inhibition (TGI) is calculated from Ti=Tz. […] Values are calculated for each of these three parameters if the level of activity is reached; however, if the effect is not reached or is exceeded, the value for that parameter is expressed as greater or less than the maximum or minimum concentration tested.
# (§5) The methods described were used to test compounds 70 and 71 on a panel of sixty cell lines under a screening service provided by the Developmental Therapeutics Program at the National Institutes of Health. Shown in FIG. 1C are 1, RPMI-8226 leukemia cells; 2; NCI-H322M non-small cell lung cancer cells; 3, HT29 colon cancer cells; 4, U251 CNS cancer cells; 5, SK-MEL-28 melanoma cancer cells; 6, SK-OV-3 ovarian cancer cells; 7, RXF 393 renal cancer cells; 8, PC-3 prostate cancer cells; 9, MDA-MB-231 breast cancer cells.
# EKVX = assay: as above; assay type: cell-based
# Method: as §1, §2, §3, §4, §5
# HOP-92 = assay: as above; assay type: cell-based
# HT29 = assay: NCI DTP cell line screen (SRB), Colon Cancer; assay type: cell-based
# RPMI-8226 = assay: NCI DTP cell line screen (SRB), Leukemia; assay type: cell-based, human; conditions: for TGI: in M (unit assumed)
# Method: as §1, §2, §3, §4, §5
# MALME-3M = assay: NCI DTP cell line screen (SRB), Melanoma; assay type: cell-based
# [1] = read-out: LC50 (the source's name)
smiles,measurement,setting,value
"N=C(N)Nc1ccc(-n2nc(C(F)(F)F)cc2-c2ccc3c(ccc4ccccc43)c2)cc1 [Compound 71, 4-[5-(2-Phenanthrenyl)-3-(trifluoromethyl)-1H-pyrazol-1-yl]-phenyl-guanidine]",phospho-Akt level,phospho-473Ser Akt,substantial decrease in the phospho-Akt level
same,GI50,NCI-H322M,1360 nM
same,TGI,NCI-H322M,2.64E−06
same,Mean Optical Densities,NCI-H322M; Log10 Concentration −4.0,0.257
same,Percent Growth,NCI-H322M; Log10 Concentration −4.0,−59%
same,Mean Optical Densities,NCI-H322M; Log10 Concentration −5.0,−0.052
same,Percent Growth,NCI-H322M; Log10 Concentration −5.0,−100%
same,Mean Optical Densities,NCI-H322M; Log10 Concentration −6.0,1.031
same,Percent Growth,NCI-H322M; Log10 Concentration −6.0,73%
same,Mean Optical Densities,NCI-H322M; Log10 Concentration −7.0,1.049
same,Percent Growth,NCI-H322M; Log10 Concentration −7.0,76%
same,Mean Optical Densities,NCI-H322M; Log10 Concentration −8.0,0.988
same,Percent Growth,NCI-H322M; Log10 Concentration −8.0,65%
same,CC50,NCI-H322M; [1],5.14 µM
same,GI50,EKVX,1060 nM
same,TGI,EKVX,2.24E−06
same,Mean Optical Densities,EKVX; Log10 Concentration −4.0,0.145
same,Percent Growth,EKVX; Log10 Concentration −4.0,−74%
same,Mean Optical Densities,EKVX; Log10 Concentration −5.0,−0.008
same,Percent Growth,EKVX; Log10 Concentration −5.0,−100%
same,Mean Optical Densities,EKVX; Log10 Concentration −6.0,0.711
same,Percent Growth,EKVX; Log10 Concentration −6.0,54%
same,Mean Optical Densities,EKVX; Log10 Concentration −7.0,0.737
same,Percent Growth,EKVX; Log10 Concentration −7.0,63%
same,Mean Optical Densities,EKVX; Log10 Concentration −8.0,0.713
same,Percent Growth,EKVX; Log10 Concentration −8.0,55%
same,CC50,EKVX; [1],4.74 µM
same,GI50,HOP-92,1010 nM
same,TGI,HOP-92,2.26E−06
same,Mean Optical Densities,HOP-92; Log10 Concentration −4.0,0.767
same,Percent Growth,HOP-92; Log10 Concentration −4.0,−28%
same,Mean Optical Densities,HOP-92; Log10 Concentration −5.0,0.089
same,Percent Growth,HOP-92; Log10 Concentration −5.0,−92%
same,Mean Optical Densities,HOP-92; Log10 Concentration −6.0,1.361
same,Percent Growth,HOP-92; Log10 Concentration −6.0,50%
same,Mean Optical Densities,HOP-92; Log10 Concentration −7.0,1.541
same,Percent Growth,HOP-92; Log10 Concentration −7.0,82%
same,Mean Optical Densities,HOP-92; Log10 Concentration −8.0,1.567
same,Percent Growth,HOP-92; Log10 Concentration −8.0,86%
same,GI50,HT29,1500 nM
same,TGI,HT29,2.83E−06
same,Mean Optical Densities,HT29; Log10 Concentration −4.0,0.003
same,Percent Growth,HT29; Log10 Concentration −4.0,−99%
same,Mean Optical Densities,HT29; Log10 Concentration −5.0,−0.054
same,Percent Growth,HT29; Log10 Concentration −5.0,−100%
same,Mean Optical Densities,HT29; Log10 Concentration −6.0,1.136
same,Percent Growth,HT29; Log10 Concentration −6.0,82%
same,Mean Optical Densities,HT29; Log10 Concentration −7.0,1.238
same,Percent Growth,HT29; Log10 Concentration −7.0,91%
same,Mean Optical Densities,HT29; Log10 Concentration −8.0,1.276
same,Percent Growth,HT29; Log10 Concentration −8.0,95%
same,CC50,HT29; [1],5.32 µM
same,GI50,RPMI-8226,1030 nM
same,Mean Optical Densities,RPMI-8226; Log10 Concentration −4.0,0.176
same,Percent Growth,RPMI-8226; Log10 Concentration −4.0,−47%
same,Mean Optical Densities,RPMI-8226; Log10 Concentration −5.0,0.016
same,Percent Growth,RPMI-8226; Log10 Concentration −5.0,−95%
same,Mean Optical Densities,RPMI-8226; Log10 Concentration −6.0,0.513
same,Percent Growth,RPMI-8226; Log10 Concentration −6.0,52%
same,Mean Optical Densities,RPMI-8226; Log10 Concentration −7.0,0.559
same,Percent Growth,RPMI-8226; Log10 Concentration −7.0,65%
same,Mean Optical Densities,RPMI-8226; Log10 Concentration −8.0,0.536
same,Percent Growth,RPMI-8226; Log10 Concentration −8.0,58%
same,TGI,RPMI-8226,2.25E−06
same,GI50,MALME-3M,1010 nM
same,TGI,MALME-3M,2.33E−06
same,Mean Optical Densities,MALME-3M; Log10 Concentration −4.0,0.333
same,Percent Growth,MALME-3M; Log10 Concentration −4.0,−50%
same,Mean Optical Densities,MALME-3M; Log10 Concentration −5.0,0.089
same,Percent Growth,MALME-3M; Log10 Concentration −5.0,−87%
same,Mean Optical Densities,MALME-3M; Log10 Concentration −6.0,0.826
same,Percent Growth,MALME-3M; Log10 Concentration −6.0,50%
same,Mean Optical Densities,MALME-3M; Log10 Concentration −7.0,0.838
same,Percent Growth,MALME-3M; Log10 Concentration −7.0,54%
same,Mean Optical Densities,MALME-3M; Log10 Concentration −8.0,0.832
same,Percent Growth,MALME-3M; Log10 Concentration −8.0,52%
same,CC50,MALME-3M; [1],100 µM
"NCC(=O)Nc1ccc(-n2nc(C(F)(F)F)cc2-c2ccc3c(ccc4ccccc43)c2)cc1 [Compound 70, 2-Amino-N-{4-[5-(2-phenanthrenyl)-3-(trifluoromethyl)-1H-pyrazol-1-yl]-phenyl}-acetamide]",phospho-Akt level,phospho-473Ser Akt,substantial decrease in the phospho-Akt level
same,TGI,NCI-H322M,2.18E−06
same,Percent Growth,NCI-H322M; Log10 Concentration −4.0,−57%
same,Percent Growth,NCI-H322M; Log10 Concentration −5.0,−84%
same,Percent Growth,NCI-H322M; Log10 Concentration −6.0,43%
same,Percent Growth,NCI-H322M; Log10 Concentration −7.0,51%
same,Percent Growth,NCI-H322M; Log10 Concentration −8.0,40%
same,TGI,EKVX,3.25E−06
same,CC50,"EKVX; Homo sapiens, read-out: LC50",7.08 µM
same,Percent Growth,EKVX; Log10 Concentration −4.0,−65%
same,Percent Growth,EKVX; Log10 Concentration −5.0,−72%
same,Percent Growth,EKVX; Log10 Concentration −6.0,75%
same,Percent Growth,EKVX; Log10 Concentration −7.0,100%
same,Percent Growth,EKVX; Log10 Concentration −8.0,110%
same,TGI,HOP-92,3.07E−06
same,Percent Growth,HOP-92; Log10 Concentration −4.0,−75%
same,Percent Growth,HOP-92; Log10 Concentration −5.0,−91%
same,Percent Growth,HOP-92; Log10 Concentration −6.0,87%
same,Percent Growth,HOP-92; Log10 Concentration −7.0,89%
same,Percent Growth,HOP-92; Log10 Concentration −8.0,96%
same,TGI,HT29,2.64E−06
same,Percent Growth,HT29; Log10 Concentration −4.0,−26%
same,Percent Growth,HT29; Log10 Concentration −5.0,−65%
same,Percent Growth,HT29; Log10 Concentration −6.0,47%
same,Percent Growth,HT29; Log10 Concentration −7.0,88%
same,Percent Growth,HT29; Log10 Concentration −8.0,92%
same,Percent Growth,RPMI-8226; Log10 Concentration −4.0,−31%
same,Percent Growth,RPMI-8226; Log10 Concentration −5.0,−51%
same,Percent Growth,RPMI-8226; Log10 Concentration −6.0,42%
same,Percent Growth,RPMI-8226; Log10 Concentration −7.0,72%
same,Percent Growth,RPMI-8226; Log10 Concentration −8.0,85%
same,TGI,RPMI-8226,2.84E−06
same,TGI,MALME-3M,3.67E−06
same,Percent Growth,MALME-3M; Log10 Concentration −4.0,−56%
same,Percent Growth,MALME-3M; Log10 Concentration −5.0,−67%
same,Percent Growth,MALME-3M; Log10 Concentration −6.0,87%
same,Percent Growth,MALME-3M; Log10 Concentration −7.0,93%
same,Percent Growth,MALME-3M; Log10 Concentration −8.0,92%
